Assay results published in ChEMBL document CHEMBL5149982, “Development of Potent NEDD8-Activating Enzyme Inhibitors Bearing a Pyrimidotriazole Scaffold” (J Med Chem, 2021).
Activity calls are given as the source filed them. No cut-off for these calls is given here.

What was measured:
NEDD8 activating enzyme [1] = target: T1, NEDD8 activating enzyme (Homo sapiens, UniProt Q8TBC4); assay: Inhibition of NAE in human HCT-116 cells incubated for 1 hr by Western blot analysis; assay type: cell-based
T1 sequence (Q8TBC4 whole entry): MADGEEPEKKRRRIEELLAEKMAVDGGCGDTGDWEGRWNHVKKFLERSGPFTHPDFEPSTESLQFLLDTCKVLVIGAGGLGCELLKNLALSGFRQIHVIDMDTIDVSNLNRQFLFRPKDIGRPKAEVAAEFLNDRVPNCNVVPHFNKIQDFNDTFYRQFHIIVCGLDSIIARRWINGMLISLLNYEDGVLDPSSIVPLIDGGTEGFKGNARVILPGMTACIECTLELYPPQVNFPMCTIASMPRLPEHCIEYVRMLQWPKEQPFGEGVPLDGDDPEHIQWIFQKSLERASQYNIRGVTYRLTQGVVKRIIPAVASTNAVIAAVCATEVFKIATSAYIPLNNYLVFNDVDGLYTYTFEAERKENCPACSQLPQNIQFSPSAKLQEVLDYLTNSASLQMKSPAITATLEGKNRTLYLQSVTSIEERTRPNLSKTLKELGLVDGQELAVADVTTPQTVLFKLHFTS
T1 sequence (Q13564 whole entry): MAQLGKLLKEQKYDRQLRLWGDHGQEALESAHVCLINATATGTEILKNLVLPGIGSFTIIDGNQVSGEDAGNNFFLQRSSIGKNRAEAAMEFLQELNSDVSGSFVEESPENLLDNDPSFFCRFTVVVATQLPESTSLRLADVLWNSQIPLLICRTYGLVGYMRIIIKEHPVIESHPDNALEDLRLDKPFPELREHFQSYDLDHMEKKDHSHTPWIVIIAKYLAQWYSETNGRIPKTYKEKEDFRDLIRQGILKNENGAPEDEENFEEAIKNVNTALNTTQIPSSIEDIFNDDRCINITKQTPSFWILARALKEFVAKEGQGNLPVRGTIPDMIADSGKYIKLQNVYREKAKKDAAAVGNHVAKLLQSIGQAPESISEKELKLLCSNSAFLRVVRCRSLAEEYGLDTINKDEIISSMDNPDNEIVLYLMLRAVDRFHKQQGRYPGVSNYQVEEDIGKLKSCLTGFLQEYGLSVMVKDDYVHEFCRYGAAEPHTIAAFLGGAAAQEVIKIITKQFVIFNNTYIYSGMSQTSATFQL

NEDD8 activating enzyme [2] = target: T1, NEDD8 activating enzyme; assay: Inhibition of NAE (unknown origin); assay type: protein-complex assay
HCT-116 [3] = assay: Antiproliferative activity against human HCT-116 cells assessed as cell growth inhibition by sulforhodamine B assay; assay type: functional, cell-based
NEDD8 activating enzyme [4] = target: T1, NEDD8 activating enzyme; assay: Inhibition of NAE (unknown origin) mediated neddylation assessed as decrease in NEDD8-Ubcl2 adduct formation incubated for 2 hrs in presence of L-glutathione and ATP by HTRF assay; assay type: protein-complex assay
[5] = target: Voltage-gated inwardly rectifying potassium channel KCNH2 (Homo sapiens, UniProt Q12809); assay: Inhibition of hERG channel; assay type: toxicity
CAPAN-1 = assay: Antiproliferative activity against human CAPAN-1 cells assessed as cell growth inhibition measured after 72 hrs by SRB assay; assay type: functional, cell-based; settings: CAPAN-1, 72 h
[6] = target: T2, NEDD8 activating enzyme (Homo sapiens) (UniProt Q8TBC4+Q13564); assay: Inhibition of NAE in human HuTu80 cells mediated neddylation assessed as increase in CHK phosphorylation incubated for 24 hrs by Western blotting analysis; assay type: cell-based
[7] = target: T2, NEDD8 activating enzyme (Homo sapiens); assay: Inhibition of NAE in human HCT-116 cells mediated neddylation assessed as accumulation of p21 incubated for 24 hrs by Western blotting analysis; assay type: cell-based; settings: dose <= 1.0 µM, DDE = dose-dependent effect
HuTu80 = assay: Antiproliferative activity against human HuTu80 cells assessed as cell growth inhibition measured after 72 hrs by SRB assay; assay type: functional, cell-based; settings: HuTu80, 72 h
[8] = Inhibition of UAE (unknown origin) […] assessed as decrease in UbcH10-Ub adduct formation incubated for 2 hrs in presence of L-glutathione and ATP by HTRF assay; design: species or system Homo sapiens
DU-145 = assay: Antiproliferative activity against human DU-145 cells assessed as cell growth inhibition measured after 72 hrs by SRB assay; assay type: functional, cell-based; settings: DU-145, 72 h
[9] = Volume of distribution at steady state in Sprague-Dawley rat at 1 mg/kg, iv; assay type: ADME, organism-based; settings: in vivo, read-out: Vdss
HCT-116 [10] = assay: Induction of cell cycle arrest in human HCT-116 cells assessed as accumulation of cells at G2/M phase incubated for 24 hrs by PI-staining-based flow cytometry; assay type: functional
[11] = target: T2, NEDD8 activating enzyme (Homo sapiens); assay: Inhibition of NAE in human HCT-116 cells mediated neddylation assessed as increase in CHK phosphorylation incubated for 24 hrs by Western blotting analysis; assay type: cell-based
[12] = target: T2, NEDD8 activating enzyme (Homo sapiens); assay: Inhibition of NAE in human HCT-116 cells mediated neddylation assessed as accumulation of IkappaBalpha (Ser32/36) incubated for 24 hrs by Western blotting analysis; assay type: cell-based; settings: dose <= 1.0 µM, DDE = dose-dependent effect
[13] = Clearance in Sprague-Dawley rat at 1 mg/kg, iv; assay type: ADME, organism-based; settings: in vivo
HCT-116 [14] = assay: Antiproliferative activity against human HCT-116 cells assessed as cell growth inhibition measured after 72 hrs by SRB assay; assay type: functional, cell-based; settings: HCT-116, 72 h
LNCaP-Clone-FGC = assay: Antiproliferative activity against human LNCaP-Clone-FGC cells assessed as cell growth inhibition measured after 72 hrs by SRB assay; assay type: functional, cell-based
[15] = target: T2, NEDD8 activating enzyme (Homo sapiens); assay: Inhibition of NAE in human HCT-116 cells mediated neddylation assessed as accumulation of p27 incubated for 24 hrs by Western blotting analysis; assay type: cell-based; settings: dose <= 1.0 µM, DDE = dose-dependent effect
[16] = Observed AUCinfinity in Sprague-Dawley rat at 1 mg/kg, iv; assay type: ADME, organism-based; design: time infinity, dose 1 mg/kg, route iv; settings: in vivo
HCT-116 [17] = assay: Induction of apoptosis in human HCT-116 cells assessed as increase in cleaved caspase-3 level upto 1 uM incubated for 48 hrs by Western blot analysis; assay type: functional, cell-based
[18] = target: T2, NEDD8 activating enzyme (Homo sapiens); assay: Inhibition of NAE in human HuTu80 cells mediated neddylation assessed as accumulation of p27 incubated for 24 hrs by Western blotting analysis; assay type: cell-based; settings: dose <= 1.0 µM, DDE = dose-dependent effect
HCT-116 [19] = assay: Induction of apoptosis in human HCT-116 cells assessed as increase in cleaved caspase-7 level upto 1 uM incubated for 48 hrs by Western blot analysis; assay type: functional, cell-based
MV4-11 = assay: Antiproliferative activity against human MV4-11 cells assessed as cell growth inhibition measured after 72 hrs by SRB assay; assay type: functional, cell-based; settings: MV4-11, 72 h
[20] = target: T2, NEDD8 activating enzyme (Homo sapiens); assay: Inhibition of NAE in human HCT-116 cells mediated neddylation assessed as accumulation of CDT1 incubated for 24 hrs by Western blotting analysis; assay type: cell-based; settings: dose <= 1.0 µM, DDE = dose-dependent effect
[21] = Toxicity in nude mouse xenografted with human HCT-116 cells assessed as effect on body weight at 65 to 130 mg/kg, sc qd for upto 18 days; assay type: organism-based; settings: in vivo, 432 h, dose 65-130 mg/kg, time < 18 day
THP-1 = assay: Antiproliferative activity against human THP-1 cells assessed as cell growth inhibition measured after 72 hrs by SRB assay; assay type: functional, cell-based; settings: THP-1, 72 h
[22] = Observed MRTinfinity in Sprague-Dawley rat at 1 mg/kg, iv; assay type: ADME, organism-based; settings: in vivo
[23] = AUClast in Sprague-Dawley rat at 1 mg/kg, iv; assay type: ADME, organism-based; design: time 0 - last, dose 1 mg/kg, route iv; settings: in vivo
HCT-116 [24] = assay: Induction of apoptosis in human HCT-116 cells assessed as increase in cleaved PARP1 level upto 1 uM incubated for 48 hrs by Western blot analysis; assay type: functional, cell-based
HCT-116 [25] = assay: Antitumor activity against human HCT-116 cells xenografted in nude mouse assessed as reduction in tumor growth at 130 mg/kg, sc qd for upto 18 days; assay type: functional; settings: time <= 18 day
[26] = target: T2, NEDD8 activating enzyme (Homo sapiens); assay: Inhibition of NAE in human HuTu80 cells mediated neddylation assessed as accumulation of IkappaBalpha (Ser32/36) incubated for 24 hrs by Western blotting analysis; assay type: cell-based; settings: dose <= 1.0 µM, DDE = dose-dependent effect
[27] = target: T2, NEDD8 activating enzyme (Homo sapiens); assay: Inhibition of NAE in human HuTu80 cells mediated neddylation assessed as accumulation of CDT1 incubated for 24 hrs by Western blotting analysis; assay type: cell-based; settings: dose <= 1.0 µM, DDE = dose-dependent effect
[28] = target: T2, NEDD8 activating enzyme (Homo sapiens); assay: Inhibition of NAE in human HuTu80 cells mediated neddylation assessed as accumulation of gamma-H2AX incubated for 24 hrs by Western blotting analysis; assay type: cell-based
[29] = target: T2, NEDD8 activating enzyme (Homo sapiens); assay: Inhibition of NAE in human HCT-116 cells mediated neddylation assessed as accumulation of gamma-H2AX incubated for 24 hrs by Western blotting analysis; assay type: cell-based
HCT-116 [30] = assay: Induction of cell cycle arrest in human HCT-116 cells assessed as accumulation of cells at S phase at higher concentration incubated for 24 hrs by PI-staining-based flow cytometry; assay type: functional
[31] = target: T2, NEDD8 activating enzyme (Homo sapiens); assay: Inhibition of NAE in human HuTu80 cells mediated neddylation assessed as accumulation of p21 incubated for 24 hrs by Western blotting analysis; assay type: cell-based; settings: dose <= 1.0 µM, DDE = dose-dependent effect
HT-29 = assay: Antiproliferative activity against human HT-29 cells assessed as cell growth inhibition measured after 72 hrs by SRB assay; assay type: functional, cell-based; settings: HT-29, 72 h
Jurkat = assay: Antiproliferative activity against human Jurkat cells assessed as cell growth inhibition measured after 72 hrs by SRB assay; assay type: functional, cell-based
RKO = assay: Antiproliferative activity against human RKO cells assessed as cell growth inhibition measured after 72 hrs by SRB assay; assay type: functional, cell-based
[32] = Half life in Sprague-Dawley rat at 1 mg/kg, iv; assay type: ADME, organism-based; settings: in vivo
HCT-116 [33] = assay: Induction of cell cycle arrest in human HCT-116 cells assessed as increase in > 4N cells at higher concentration incubated for 24 hrs by PI-staining-based flow cytometry; assay type: functional

Sequence of Voltage-gated inwardly rectifying potassium channel KCNH2 (Q12809 whole entry): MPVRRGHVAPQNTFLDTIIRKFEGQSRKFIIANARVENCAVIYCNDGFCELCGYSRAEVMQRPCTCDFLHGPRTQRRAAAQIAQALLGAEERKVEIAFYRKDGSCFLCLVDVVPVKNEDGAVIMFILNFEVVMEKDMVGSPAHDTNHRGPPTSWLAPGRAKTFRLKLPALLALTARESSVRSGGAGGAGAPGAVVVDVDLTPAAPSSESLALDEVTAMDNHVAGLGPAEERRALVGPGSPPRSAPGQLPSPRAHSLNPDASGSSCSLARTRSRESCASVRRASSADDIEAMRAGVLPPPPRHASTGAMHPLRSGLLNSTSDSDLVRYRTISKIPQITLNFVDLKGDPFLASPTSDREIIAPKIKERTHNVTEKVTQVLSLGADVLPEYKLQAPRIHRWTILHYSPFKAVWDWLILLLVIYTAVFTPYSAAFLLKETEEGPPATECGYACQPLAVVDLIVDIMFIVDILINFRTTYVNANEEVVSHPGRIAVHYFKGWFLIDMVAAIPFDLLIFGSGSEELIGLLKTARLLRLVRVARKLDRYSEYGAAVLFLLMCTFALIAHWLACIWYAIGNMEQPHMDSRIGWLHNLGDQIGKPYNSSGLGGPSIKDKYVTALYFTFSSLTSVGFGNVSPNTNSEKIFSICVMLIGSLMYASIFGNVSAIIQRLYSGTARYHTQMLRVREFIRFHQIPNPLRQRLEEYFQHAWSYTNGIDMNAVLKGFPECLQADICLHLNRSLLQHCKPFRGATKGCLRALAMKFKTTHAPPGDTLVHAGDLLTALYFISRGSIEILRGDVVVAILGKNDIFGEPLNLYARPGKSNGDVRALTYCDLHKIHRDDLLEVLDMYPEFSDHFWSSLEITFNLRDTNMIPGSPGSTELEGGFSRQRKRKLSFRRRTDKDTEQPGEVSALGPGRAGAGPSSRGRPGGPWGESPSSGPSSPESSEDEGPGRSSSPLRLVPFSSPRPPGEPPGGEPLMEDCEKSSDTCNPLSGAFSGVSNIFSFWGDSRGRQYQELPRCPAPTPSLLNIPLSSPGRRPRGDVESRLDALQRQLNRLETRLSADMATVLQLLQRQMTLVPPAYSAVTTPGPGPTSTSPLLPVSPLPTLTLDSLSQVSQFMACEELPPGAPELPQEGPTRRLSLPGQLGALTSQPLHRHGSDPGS

## CCOc1cccc(F)c1C#Cc1cn([C@@H]2O[C@H](COS(N)(=O)=O)[C@@H](O)[C@H]2O)c2ncnc(N)c12
NEDD8 activating enzyme [1]
  IC50: 8 nM
NEDD8 activating enzyme [2]
  IC50: 1 nM

## NS(=O)(=O)OC[C@@H]1C[C@@H](n2nnc3c(N[C@@H]4c5ccccc5C[C@@H]4O)ncnc32)C[C@@H]1O
HCT-116 [3]
  IC50: 38.8 nM
NEDD8 activating enzyme [4]
  IC50: 2.28 nM
[5]
  IC50: > 40 µM

## COC(=O)N1CCC2(CC1)C[C@H](Nc1ncnc3c1nnn3[C@@H]1C[C@@H](COS(N)(=O)=O)[C@@H](O)C1)c1ccccc12
CAPAN-1
  IC50: 101 nM
[6]
  inhibition: Active
[7]
  inhibition: Dde
HuTu80
  IC50: 40 nM
[8]
  IC50: 66.8 nM
DU-145
  IC50: 482 nM
HCT-116 [3]
  IC50: 36.2 nM
[9]
  Vd: 1.78 L/kg
HCT-116 [10]
  Activity: Active
[11]
  inhibition: Active
[12]
  inhibition: Dde
NEDD8 activating enzyme [4]
  IC50: 0.55 nM
[13]
  clearance: 29.7 mL/min/kg
HCT-116 [14]
  IC50: 33.9 nM
LNCaP-Clone-FGC
  IC50: 264 nM
[15]
  inhibition: Dde
[16]
  AUC(0-inf): 563 ng·h/mL
HCT-116 [17]
  Activity: Active
[18]
  inhibition: Dde
HCT-116 [19]
  Activity: Active
[5]
  IC50: > 40 µM
MV4-11
  IC50: 106 nM
[20]
  inhibition: Dde
[21]
  Activity: Non-Toxic
THP-1
  IC50: 353 nM
[22]
  MRT inf: 1 h
[23]
  AUC(0-t): 560 ng·h/mL
HCT-116 [24]
  Activity: Active
HCT-116 [25]
  T/C: 0.19
[26]
  inhibition: Dde
[27]
  inhibition: Dde
[28]
  inhibition: Active
[29]
  inhibition: Active
HCT-116 [30]
  Activity: Active
[31]
  inhibition: Dde
HT-29
  IC50: 407 nM
Jurkat
  IC50: 482 nM
RKO
  IC50: 286 nM
[32]
  half-life: 42.6 min
HCT-116 [33]
  Activity: Active

## CC(C)(C)OC(=O)N1CCC2(CC1)C[C@H](Nc1ncnc3c1nnn3[C@@H]1C[C@@H](COS(N)(=O)=O)[C@@H](O)C1)c1ccccc12
HCT-116 [3]
  IC50: 94.4 nM
NEDD8 activating enzyme [4]
  IC50: 9.76 nM
[5]
  IC50: > 40 µM
